Patent US7375180B2, “Methods and compositions related to IRM compounds and Toll-like receptor 8” (3M Innovative Properties Company, priority 2003, dated 2008)

Target: T1, TLR8 (Homo sapiens, UniProt Q9NR97)
T1 sequence (Q9NR97 27-1041): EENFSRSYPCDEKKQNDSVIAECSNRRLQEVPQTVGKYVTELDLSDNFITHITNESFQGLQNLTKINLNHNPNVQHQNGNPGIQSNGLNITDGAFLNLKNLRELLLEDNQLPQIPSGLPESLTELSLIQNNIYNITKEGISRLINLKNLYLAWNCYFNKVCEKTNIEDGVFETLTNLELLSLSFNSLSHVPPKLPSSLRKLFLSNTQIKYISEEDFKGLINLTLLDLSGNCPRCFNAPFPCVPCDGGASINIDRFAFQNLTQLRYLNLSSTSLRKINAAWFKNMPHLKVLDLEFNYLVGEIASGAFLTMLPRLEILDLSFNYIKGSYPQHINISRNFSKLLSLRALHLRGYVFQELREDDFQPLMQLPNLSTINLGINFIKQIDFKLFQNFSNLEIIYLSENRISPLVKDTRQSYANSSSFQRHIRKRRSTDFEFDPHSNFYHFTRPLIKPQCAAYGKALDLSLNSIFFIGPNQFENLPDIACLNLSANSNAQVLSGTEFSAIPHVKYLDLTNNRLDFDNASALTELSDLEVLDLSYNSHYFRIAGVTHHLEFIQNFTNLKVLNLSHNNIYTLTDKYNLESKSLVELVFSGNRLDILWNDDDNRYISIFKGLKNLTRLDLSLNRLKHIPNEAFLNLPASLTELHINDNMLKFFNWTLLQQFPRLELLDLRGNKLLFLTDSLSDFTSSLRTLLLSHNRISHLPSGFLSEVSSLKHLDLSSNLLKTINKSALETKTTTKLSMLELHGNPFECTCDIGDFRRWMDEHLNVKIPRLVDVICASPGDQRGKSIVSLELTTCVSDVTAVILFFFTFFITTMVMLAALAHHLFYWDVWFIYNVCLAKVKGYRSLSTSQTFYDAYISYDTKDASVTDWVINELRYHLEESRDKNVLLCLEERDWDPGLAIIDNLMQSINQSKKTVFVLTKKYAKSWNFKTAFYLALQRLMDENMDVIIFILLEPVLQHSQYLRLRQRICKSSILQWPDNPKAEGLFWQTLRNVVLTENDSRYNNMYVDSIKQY
Experiment: Dose dependent TLR8-mediated NF-κB-luciferase response in HEK293 cells transfected with TLR8 (Example 5)
Assay type: cell-based
Parameters: expressed in transfected cells; host or cells: HEK293 (ATCC CRL-1573), pIRES vector, G-418 selected, co-transfected with NFkB-luc reporter
Procedure: Twenty-four hours before transfection, HEK293 cells were adhered to a 10 cm dish (Corning 430167, Corning Inc., Corning, N.Y.) at 37° C., 8% CO2. The cells were co-transfected with (1) pIRES (BD Biosciences Clontech, Palo Alto, Calif.) either (a) unmodified (HEK293-vector) or (b) containing human TLR8 (HEK293-TLR8), and (2) NFkB-luc reporter (Stratagene, La Jolla, Calif.) in a 10:1 ratio with Fugene 6 transfection reagent (Roche Diagnostics Corp., Indianapolis, Ind.) following the manufacturer's instructions. The plates were incubated for 24 hours following transfection and then selected in G-418 (400 μg/mL) for two weeks. The G-418-resistant cells containing either the TLR8 or empty vector were expanded in HEK293 media supplemented with G-418 for stimulation experiments.
The transfected cells were plated in white opaque 96 well plates (Costar 3917, Corning Inc., Corning, N.Y.) at a concentration of 5×10^4 cells per well in 100 μL of HEK293 media and incubated at 37° C., 8% CO2 for 4 hours. The cells were stimulated with 1 μL of IRM compounds at 1 mM in DMSO (final IRM concentration of 10 μM) or 1 μL DMSO as a control. The plates were then incubated an additional 16 hours at 37° C., 5% CO2. Luminescence was measured on an LMAX luminometer (Molecular Devices Corp., Sunnyvale, Calif.).
HEK293 cells were transfected as described in Example 1. HEK293 cultures were incubated with IRM compound or a negative control compound (1,5-dihydro-1-(2-methylpropyl)-4H-imidazo[4,5-c]quinolin-4-one, U.S. Pat. No. 4,698,348, Example 71) at concentrations of 0.1 μM, 0.3 μM, 1.0 μM, 3.0 μM, 10 μM, or 30 μM, or a vehicle control. Cultures were otherwise incubated as described in Example 1. Luciferase signals were read in RLU (Relative Luciferase Units) as described in Example 1.

SMILES	Fold increase over vehicle (0.1 μM)	Fold increase over vehicle (0.3 μM)	Fold increase over vehicle (1.0 μM)	Fold increase over vehicle (3.0 μM)	Fold increase over vehicle (10 μM)	Fold increase over vehicle (30 μM)
COCCc1nc2c(N)nc3ccccc3c2n1CCCCNC(=O)c1cnc2ccccc2c1 [IRM37, N-{4-[4-amino-2-(2-methoxyethyl)-1H-imidazo[4,5-c]quinolin-1-yl]butyl}quinoline-3-carboxamide]	0.7 fold	0.9 fold	1.0 fold	3.2 fold	5.2 fold	11.8 fold
COCCc1nc2c(N)nc3ccccc3c2n1CCCCNC(=O)c1cnc2ccccc2n1 [IRM38, N-{4-[4-amino-2-(2-methoxyethyl)-1H-imidazo[4,5-c]quinolin-1-yl]butyl}quinoxaline-2-carboxamide]	0.8 fold	0.8 fold	1.3 fold	3.8 fold	6.9 fold	7.8 fold
CCCCc1nc2c(N)nc3ccccc3c2n1CCCNC(=O)N1CCOCC1 [IRM39, N-[3-(4-amino-2-butyl-1H-imidazo[4,5-c]quinolin-1-yl)propyl]morpholine-4-carboxamide]	0.9 fold	1.1 fold	1.2 fold	1.5 fold	6.8 fold	18.0 fold
CCCCc1nc2c(N)nc3ccccc3c2n1CCCS(C)(=O)=O [IRM40, 2-butyl-1-[3-(methylsulfonyl)propyl]-1H-imidazo[4,5-c]quinolin-4-amine]	1.0 fold	0.9 fold	0.9 fold	1.3 fold	3.1 fold	16.4 fold
COCCc1nc2c(N)nc3c(c2n1CCOCCNC(=O)Nc1ccccc1)CCCC3 [IRM41, N-(2-{2-[4-amino-2-(methoxyethyl)-6,7,8,9-tetrahydro-1H-imidazo[4,5-c]quinolin-1-yl]ethoxy}ethyl)-n′-phenylurea]	0.7 fold	0.9 fold	1.0 fold	3.3 fold	12.7 fold	25.4 fold
CCCCc1nc2c(N)nc3ccccc3c2n1CCS(=O)(=O)CC [IRM42, 2-butyl-1-[2-(ethylsulfonyl)ethyl]-1H-imidazo[4,5-c]quinolin-4-amine]	1.0 fold	0.9 fold	1.3 fold	3.8 fold	13.2 fold	26.0 fold
CCOCC(=O)NC(C)(C)Cn1c(COCC)nc2c(N)nc3ccccc3c21 [IRM43, N-{2-[4-amino-2-(ethoxymethyl)-1H-imidazo[4,5-c]quinolin-1-yl]-1,1-dimethylethyl}-2-ethoxyacetamide]	2.3 fold	2.3 fold	3.3 fold	2.1 fold	5.6 fold	17.0 fold
CCc1nc2c(N)nc3ccccc3c2n1CCS(C)(=O)=O [IRM44, 2-ethyl-1-[2-(methylsulfonyl)ethyl]-1H-imidazo[4,5-c]quinolin-4-amine]	0.9 fold	1.1 fold	1.0 fold	0.9 fold	2.5 fold	12.5 fold
CCCCc1nc2c(N)nc3ccccc3c2n1CCS(C)(=O)=O [IRM45, 2-butyl-1-[2-(methylsulfonyl)ethyl]-1H-imidazo[4,5-c]quinolin-4-amine]	1.5 fold	2.5 fold	6.7 fold	12.1 fold	17.0 fold	24.3 fold
CCCCc1nc2c(N)nc3ccccc3c2n1CC(C)(C)CNC(=O)N1CCOCC1 [IRM46, N-[3-(4-amino-2-butyl-1H-imidazo[4,5-c]quinolin-1-yl)-2,2-dimethylpropyl]morpholine-4-carboxamide]	0.9 fold	1.1 fold	1.4 fold	1.7 fold	3.9 fold	7.3 fold
CCOCc1nc2c(N)nc3ccccc3c2n1CC(C)(C)NC(=O)NC(C)C [IRM47, N-{2-[4-amino-2-(ethoxymethyl)-1H-imidazo[4,5-c]quinolin-1-yl]-1,1-dimethylethyl}-n′-isopropylurea]	0.9 fold	0.8 fold	1.1 fold	1.7 fold	4.9 fold	12.5 fold
CCOCc1nc2c(N)nc3cc(-c4ccccc4)ccc3c2n1CC1CCNCC1 [IRM48, 2-ethoxymethyl-7-phenyl-1-(piperidin-4-ylmethyl)-1H-imidazo[4,5-c]quinolin-4-amine]	0.9 fold	0.6 fold	1.1 fold	1.2 fold	8.2 fold	9.5 fold
COCCc1nc2c(N)nc3cc(-c4cncc(CO)c4)ccc3c2n1CC(C)(C)O [IRM49, 1-[4-amino-7-(5-hydroxymethylpyridin-3-yl)-2-(2-methoxyethyl)-1H-imidazo[4,5-c]quinolin-1-yl]-2-methylpropan-2-ol]	1.1 fold	1.4 fold	2.0 fold	3.8 fold	7.0 fold	15.5 fold
COCCc1nc2c(N)nc3cc(-c4cccc(NS(C)(=O)=O)c4)ccc3c2n1CC(C)(C)O [IRM50, N-{3-[4-amino-1-(2-hydroxy-2-methylpropyl)-2-(methoxyethyl)-1H-imidazo[4,5-c]quinolin-7-yl]phenyl}methanesulfonamide]	1.8 fold	2.1 fold	2.2 fold	4.1 fold	11.7 fold	21.1 fold
CCOCc1nc2c(N)nc3cc(-c4cccnc4)ccc3c2n1CC(C)(C)O [IRM51, 1-[4-amino-2-(ethoxymethyl)-7-(pyridin-3-yl)-1H-imidazo[4,5-c]quinolin-1-yl]-2-methylpropan-2-ol]	1.9 fold	3.8 fold	11.9 fold	15.0 fold	21.5 fold	22.4 fold
